Key:
[1] = tested on: SRA-1 human lens epithelial cells; experiment: ROS staining (H2DCF-DA) in lens epithelial cells; type: cell-based; settings: 24 hour incubation, H2DCF-DA stain; for ROS staining, ROS generated by Fenton reaction: 0.1 mM Fe^2+ and 0.1 mM hydrogen peroxide; for ROS staining, ROS initiated by homocysteine: 10 mM homocysteine (ER stress)
Protocol: The SRA-1 human lens epithelium cell line (Ibaraki et al. (1998) Exp. Eye Res., 67:577-85) was used to evaluate the antioxidant activity of JHX-1-8. These cells were cultured in DMEM media containing 10% fetal bovine serum (FBS), glutamine, NaHCO3, penicillin, and streptomycin at 37° C. in humidified atmosphere of 5% CO2 and 95% air until subconfluent (2-4 days). The cells were passaged when 80-90% confluent by treatment with trypsin-EDTA. The cells were plated at a density of 1×10^4 cells onto 96-well plates or 1×10^6 cells onto 100-mm dishes. ROS levels/effects in cells treated with JHX-1-8 were compared to similar cells treated with the water soluble Vitamin E derivative, Trolox (antioxidant control) or no drug (control).
The compounds were initially screened for antioxidant activity in 24 hour cultured SRA-1 human lens epithelial cells. Reactive oxygen species (ROS) in these cells were generated through both the Fenton reaction in which 0.1 mM Fe^2+ and 0.1 mM hydrogen peroxide were added to the culture media, or by culturing the lens with 10 mM homocysteine which induces endoplasmic reticular (ER) stress that results in the unfolded protein response (UPR) that subsequently generates the ROS. ROS were visualized with 2′,7′-dichlorodihydrofluorescein diacetate (DCF) staining. More specifically, after 24 hours of incubation, all cells were washed 2× with PBS and then incubated at room temperature for 1 hour with 10 μM H2DCF-DA (Invitrogen) stain. Fluorescent ROS staining was analyzed by quantifying pixel intensities of images obtained by fluorescent microscopy. As illustrated below in FIGS. 4A and 4B, compounds with chelating groups only produced a dose-dependent reduction in Fenton Reaction generated ROS. […] Indeed, homocysteine activates ER stress which subsequently initiates ROS through an Unfolded Protein Response (UPR).

[2] = Chelation study by ESI-MS, Zn^2+ solution; type: binding; settings: 10:1 metal:compound, 45 minutes of mixing
Protocol: (§1) The relative amount of ions bound by JHX-1-JHX-8 was determined by electrospray ionization mass spectrometry (ESI-MS) according to the method of Baron and Hering (Baron and Hering (1998) Spectrometry J. Environ. Qual., 27:844-850). In this method solutions containing Fe^2+, Fe^3+, Cu^1+, Cu^2+, Zn^2+, Ca^2+, Mg^2+ were mixed with compound in ratios of 10:1, 1:1, and 1:10. After 45 minutes of mixing, each solution was directly infused into the MS with constant ionization energy and the relative decreases of the parent peaks in these solutions were determined. […] FIG. 3 illustrates ion binding with increased Fe^+2 concentrations results in decreased compound parent peak heights by ESI-MS when compounds contain appropriate functional groups for metal ion chelation.

[3] = Chelation study by ESI-MS, Cu^2+ solution; type: binding; settings: 10:1 metal:compound, 45 minutes of mixing
Protocol: as §1

[4] = Chelation study by ESI-MS, Mg^2+ solution; type: binding; settings: 10:1 metal:compound, 45 minutes of mixing
Protocol: as §1

[5] = tested on: SRA-1 human lens epithelium cell line; experiment: MTS cell viability assay; type: cell-based; settings: 1.0 mM H2O2, 2 hours, 1 mM compound
Protocol: The SRA-1 human lens epithelium cell line (Ibaraki et al. (1998) Exp. Eye Res., 67:577-85) was used to evaluate the antioxidant activity of JHX-1-8. […] The cells were passaged when 80-90% confluent by treatment with trypsin-EDTA. The cells were plated at a density of 1×10^4 cells onto 96-well plates or 1×10^6 cells onto 100-mm dishes. ROS levels/effects in cells treated with JHX-1-8 were compared to similar cells treated with the water soluble Vitamin E derivative, Trolox (antioxidant control) or no drug (control). […] Cells were cultured in 96-well plates and exposed for 2 hours to media containing 1.0 mM H2O2 (FIG. 5A) or Fenton reagents (1.0 mM H2O2 and 1.0 mM Fe^2+, FIG. 5B) with/without 1 mM JHX-1-8 or Trolox. Viability was measured as the absorbance of MTS stain at 490 nm 1 hour after the addition of 20 μL of […] AQueous One Solution Cell Proliferation Assay to each well. The results were normalized to blank control (100%) since absorbance is directly proportional to the living cell population.

[6] = Chow consumption, body weight and salivary gland protection after whole head irradiation; type: in vivo, Long Evans rats; settings: for body weight after irradiation: 15 Gy whole head irradiation; for protection of the salivary gland: after whole head irradiation
Excerpt: Cataracts were induced by whole head gamma irradiation in 24 male Long Evans (150-200 g) rats. […] Because of the amount of drug required for this long-term study, the percentage of JHX-4 and JHX-8 utilized was ½ of the dose used in the diabetic study. […] Lens changes were monitored every 7 days by portable slit lamp and recorded on a scale from 0-6 with 0: Clear, 1: Posterior subcapsular haze, 2: Spokes, suture enhancement and powdery posterior subcapsular deposits, 3: Prominent posterior subcapsular punctate opacities with spokes and suture enhancement, 4: Posterior subcapsular opacity blocks appearance of retinal vessels, 5: Start cortical involvement, 6: Total lens opacity, visible with naked eye. […] Subsequently, all rats received standard rat chow with/without JHX-4 or -8.

[7] = tested on: lens opacities after whole head irradiation; type: in vivo; settings: for appearance of lens opacities / delay of lens PSC opacities / delay of the average (50% in all animals) formation of PSC punctuate opacities: 15 Gy whole head irradiation; for delay of lens PSC opacities / delay of the average (50% in all animals) formation of PSC punctuate opacities: compared to untreated rats, JHX 0.025 wt % in chow, Pantethine 1 g/kg i.p.; for toxic effects: irradiated rats
Excerpt: Cataracts were induced by whole head gamma irradiation in 24 male Long Evans (150-200 g) rats. […] Because of the amount of drug required for this long-term study, the percentage of JHX-4 and JHX-8 utilized was ½ of the dose used in the diabetic study. […] Gamma radiation (6000 Curie Cobalt-60 Source, UNMC Experimental Radiation Facility) was delivered to the whole head of unanesthetized, restrained rats at a dose rate of dose 0.341 Gy/minute for a total dose of 15 Gy. Lens changes were monitored every 7 days by portable slit lamp and recorded on a scale from 0-6 with 0: Clear, 1: Posterior subcapsular haze, 2: Spokes, suture enhancement and powdery posterior subcapsular deposits, 3: Prominent posterior subcapsular punctate opacities with spokes and suture enhancement, 4: Posterior subcapsular opacity blocks appearance of retinal vessels, 5: Start cortical involvement, 6: Total lens opacity, visible with naked eye. Since whole head irradiation results in a temporary loss of salivary gland function, all rats received Nutra-Gel (Bio-Serv) with/without JHX-4 or -8 for the first 66 days. Subsequently, all rats received standard rat chow with/without JHX-4 or -8.

| SMILES | ROS staining, ROS generated by Fenton reaction [1] | ROS staining, ROS initiated by homocysteine [1] | % Parent Peak Remaining at 10:1 Solution of Metal:Compound [2] | % Parent Peak Remaining at 10:1 Solution of Metal:Compound [3] | % Parent Peak Remaining at 10:1 Solution of Metal:Compound [4] | protection against H2O2 induced loss of cell viability [5] | body weight after irradiation [6] | protection of the salivary gland [6] | appearance of lens opacities [7] | delay of lens PSC opacities [7] | delay of the average (50% in all animals) formation of PSC punctuate opacities [7] | toxic effects [7] |
| --- | --- | --- | --- | --- | --- | --- | --- | --- | --- | --- | --- | --- |
| COc1nc(N2CC(=O)N(S(=O)(=O)N(C)C)C(=O)C2)nc(OC)c1O [JHX-8, 1-N,N′-dimethylsulfamoyl-4-(4,6-dimethoxy-5-hydroxy-2-pyrimidyl)piperazine-2,6-dione] | protected against ROS | reduced ROS staining similar to that with Trolox | 14.6% | 3.6% | 100.0% | protecting against H2O2 induced loss of cell viability | reducing post-irradiation weight loss | provided systemic protection | delayed | 47 days | 58 days | No apparent toxic effects |
| CN(C)S(=O)(=O)N1C(=O)CN(c2ncc(O)cn2)CC1=O [JHX-4, 1-N,N′-dimethylsulfamoyl-4-(5-hydroxy-2-pyrimidyl)piperazine-2,6-dione] | protected against ROS | reduced ROS staining similar to that with Trolox | 12.7% | 3.0% | 100.0% | protecting against H2O2 induced loss of cell viability | reducing post-irradiation weight loss | provided systemic protection | delayed | 38 days | 53 days | No apparent toxic effects |
